Source: ChEMBL document CHEMBL1201862, “PubChem BioAssay data set” (2004)
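96-well plates; 48 h exposure; 5 concentrations. Endpoints by linear interpolation between flanking doses. Not reached: highest tested concentration assigned. Abbreviation: GI50, concentration required for 50% inhibition of growth.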 Active and inactive are the calls of the source. Cut-off read from the data, not from the text of the source: active = GI50 up to about 1.1 µM and inactive = higher.

Legend:
Experiment in all cases: growth of human tumour cells (NCI), 48 h
IGROV-1 = tested on: IGROV-1
M14 = tested on: M14
SK-OV-3 = tested on: SK-OV-3
HCT-15 = tested on: HCT-15
SK-MEL-28 = tested on: SK-MEL-28
A549 = tested on: A549
HT-29 = tested on: HT-29
UACC-257 = tested on: UACC-257
NCI-H460 = tested on: NCI-H460
M19-MEL = tested on: M19-MEL
HCC 2998 = tested on: HCC 2998
RXF 631 = tested on: RXF 631
DLD-1 = tested on: DLD-1
DMS-273 = tested on: DMS-273
UO-31 = tested on: UO-31
XF498 = tested on: XF498
DMS-114 = tested on: DMS-114
SF-539 = tested on: SF-539
LXFL 529 = tested on: LXFL 529
SF-295 = tested on: SF-295
SK-MEL-5 = tested on: SK-MEL-5
EKVX = tested on: EKVX
NCI-H23 = tested on: NCI-H23
HCT-116 = tested on: HCT-116
HL-60 = tested on: HL-60
COLO 205 = tested on: COLO 205
SNB-19 = tested on: SNB-19
OVCAR-5 = tested on: OVCAR-5
TK-10 = tested on: TK-10
K562 = tested on: K562
CCRF-CEM = tested on: CCRF-CEM
786-0 = tested on: 786-0
SK-MEL-2 = tested on: SK-MEL-2
RPMI-8226 = tested on: RPMI-8226
KM12 = tested on: KM12
LOX IMVI = tested on: LOX IMVI
OVCAR-4 = tested on: OVCAR-4
KM-20L2 = tested on: KM-20L2
HOP-62 = tested on: HOP-62
OVCAR-8 = tested on: OVCAR-8
NCI-H522 = tested on: NCI-H522
MOLT-4 = tested on: MOLT-4
CAKI-1 = tested on: CAKI-1
U-251 = tested on: U-251
SF-268 = tested on: SF-268
A498 = tested on: A498
SN12C = tested on: SN12C
Malme-3M = tested on: Malme-3M
SNB-78 = tested on: SNB-78
SNB-75 = tested on: SNB-75
SW-620 = tested on: SW-620
OVCAR-3 = tested on: OVCAR-3
ACHN = tested on: ACHN
UACC-62 = tested on: UACC-62
RXF 393 = tested on: RXF 393
HOP-18 = tested on: HOP-18
HOP-92 = tested on: HOP-92
SR = tested on: SR
NCI-H226 = tested on: NCI-H226

Measured: GI50

COc1ccc(C(=O)C(CO)Oc2ccccc2OC)cc1OC (configuration not stated)
inactive: IGROV-1 > 100 µM | M14 > 100 µM | SK-OV-3 > 100 µM | SK-MEL-28 > 100 µM | A549 > 100 µM | HT-29 > 100 µM | UACC-257 > 100 µM | NCI-H460 > 100 µM | M19-MEL > 100 µM | HCC 2998 > 100 µM | RXF 631 > 100 µM | DLD-1 > 100 µM | DMS-273 > 100 µM | UO-31 > 100 µM | XF498 > 100 µM | DMS-114 > 100 µM | SF-539 > 100 µM | LXFL 529 > 100 µM | SF-295 > 100 µM | SK-MEL-5 > 100 µM | EKVX > 100 µM | NCI-H23 > 100 µM | HCT-116 > 100 µM | HL-60 > 100 µM | COLO 205 > 100 µM | SNB-19 > 100 µM | OVCAR-5 > 100 µM | TK-10 > 100 µM | K562 > 100 µM | CCRF-CEM > 100 µM | 786-0 > 100 µM | SK-MEL-2 > 100 µM | RPMI-8226 > 100 µM | KM12 > 100 µM | LOX IMVI > 100 µM | OVCAR-4 > 100 µM | KM-20L2 > 100 µM | HOP-62 > 100 µM | OVCAR-8 > 100 µM | NCI-H522 91 µM | MOLT-4 > 100 µM | CAKI-1 > 100 µM | U-251 > 100 µM | SF-268 > 100 µM | A498 > 100 µM | SN12C > 100 µM | Malme-3M > 100 µM | SNB-78 > 100 µM | SNB-75 > 100 µM | SW-620 > 100 µM | OVCAR-3 > 100 µM | ACHN > 100 µM | UACC-62 > 100 µM
> 100 µM: HCT-15

[O-][S+]1[C@H](c2ccccc2)c2c(-c3ccccc3)sc(-c3ccccc3)c2[C@@H]1c1ccccc1 (some centres not stated)
inactive: IGROV-1 > 100 µM | M14 85.9 µM | SK-OV-3 > 100 µM | RXF 393 23.1 µM | SK-MEL-28 96.6 µM | A549 10.8 µM | HOP-18 11.4 µM | HT-29 41 µM | UACC-257 > 100 µM | NCI-H460 17.1 µM | M19-MEL > 100 µM | HCC 2998 > 100 µM | RXF 631 39 µM | DLD-1 33 µM | DMS-273 > 100 µM | UO-31 65.6 µM | DMS-114 10.2 µM | SF-539 > 100 µM | LXFL 529 > 100 µM | SF-295 > 100 µM | SK-MEL-5 6.15 µM | NCI-H23 6.55 µM | HL-60 4.31 µM | COLO 205 23.1 µM | SNB-19 77.1 µM | OVCAR-5 3.66 µM | TK-10 9.1 µM | K562 6.44 µM | CCRF-CEM 89.7 µM | 786-0 29.3 µM | SK-MEL-2 32.7 µM | RPMI-8226 6.04 µM | KM12 12.5 µM | LOX IMVI 94.8 µM | OVCAR-4 8.49 µM | KM-20L2 5.79 µM | HOP-62 > 100 µM | OVCAR-8 8.75 µM | NCI-H522 3.23 µM | MOLT-4 4.75 µM | CAKI-1 15.2 µM | U-251 9.44 µM | SF-268 > 100 µM | SN12C 25.3 µM | Malme-3M 23.4 µM | SNB-75 12.4 µM | SW-620 13.2 µM | OVCAR-3 > 100 µM | HOP-92 2.96 µM | ACHN 5.89 µM | UACC-62 39.6 µM
active: EKVX 0.286 µM
7.1 µM: HCT-15

Cc1ccc(C)c(NC(=O)C(=O)C(C2C(C)CC(=O)C2CC(=O)O)[N+](=O)[O-])c1 (configuration not stated)
inactive: IGROV-1 > 100 µM | M14 > 100 µM | SK-OV-3 > 100 µM | SR > 100 µM | RXF 393 > 100 µM | SK-MEL-28 > 100 µM | A549 > 100 µM | HT-29 > 100 µM | UACC-257 > 100 µM | NCI-H460 > 100 µM | M19-MEL > 100 µM | HCC 2998 > 100 µM | RXF 631 > 100 µM | DLD-1 > 100 µM | UO-31 > 100 µM | XF498 > 100 µM | DMS-114 > 100 µM | SF-539 > 100 µM | LXFL 529 > 100 µM | SF-295 > 100 µM | SK-MEL-5 > 100 µM | EKVX > 100 µM | NCI-H23 > 100 µM | HCT-116 > 100 µM | HL-60 > 100 µM | COLO 205 > 100 µM | SNB-19 > 100 µM | OVCAR-5 > 100 µM | TK-10 > 100 µM | K562 > 100 µM | CCRF-CEM > 100 µM | 786-0 > 100 µM | SK-MEL-2 > 100 µM | RPMI-8226 > 100 µM | KM12 > 100 µM | LOX IMVI > 100 µM | NCI-H226 > 100 µM | OVCAR-4 > 100 µM | KM-20L2 > 100 µM | HOP-62 > 100 µM | MOLT-4 > 100 µM | CAKI-1 > 100 µM | U-251 > 100 µM | SF-268 > 100 µM | A498 > 100 µM | SN12C > 100 µM | Malme-3M > 100 µM | SNB-78 > 100 µM | SNB-75 > 100 µM | SW-620 > 100 µM | OVCAR-3 > 100 µM | HOP-92 > 100 µM | ACHN > 100 µM | UACC-62 > 100 µM
> 100 µM: HCT-15
